Structures can show the parent of a compound that is named as a salt.
Tested on: T1, IRAK1/4 human
T1 construct: fused on or other part: His tag and TEV cleavage site at the N-terminus
Assay: IRAK1/4 phosphorylation IC50 (enzymatic assay, table 2)
Format: biochemical
Conditions: human IRAK1/4 phosphorylation
Summary of the method: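 His-TEV-tagged human IRAK-1 or IRAK-4 (IRAK-4 with STK1-biotin peptide) was incubated in 384-well plates with ATP and compounds in DMSO from 20 µM to 1 nM, with 2% DMSO controls. The buffer was Hepes pH7.0 50 mM with MgCl2, DTT, EGTA and BSA, and reactions ran 2 or 3 hours. Inhibition was reported as IC50.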

Row | SMILES | IC50
1 | c1ccc2c(-c3cn(-c4ccc([C@@H]5C[C@H]6CC[C@@H](C5)N6C5CCCCC5)cc4)nn3)n[nH]c2c1 (single isomer, unassigned) [Example 151, 3-(1-{4-[(3-exo)-8-cyclohexyl-8-azabicyclo[3.2.1]oct-3-yl]phenyl}-1H-1,2,3-triazol-4-yl)-1H-indazole] | < 100 nM
2 | c1ccc2c(-c3cn(-c4ccc([C@H]5C[C@H]6CC[C@@H](C5)N6C5CCCCC5)cc4)nn3)n[nH]c2c1 (single isomer, unassigned) [Example 152, 3-(1-{4-[(3-endo)-8-cyclohexyl-8-azabicyclo[3.2.1]oct-3-yl]phenyl}-1H-1,2,3-triazol-4-yl)-1H-indazole] | 100 to 1000 nM
3 | c1ccc2c(-c3cn(-c4ccc(N5CCOCC5)nc4)nn3)n[nH]c2c1 [Example 20, 3-[1-(6-morpholin-4-ylpyridin-3-yl)-1H-1,2,3-triazol-4-yl]-1H-indazole] | 1000 to 5000 nM
4 | CCN(CC)CCNC(=O)c1ccc(-n2cc(-c3n[nH]c4ccccc34)nn2)cc1 [Example 46, N-[2-(diethylamino)ethyl]-4-[4-(1H-indazol-3-yl)-1H-1,2,3-triazol-1-yl]benzamide] | 100 to 1000 nM
5 | O=C(NCCCN1CCOCC1)c1cccc(-n2cc(-c3n[nH]c4ccccc34)nn2)c1 [Example 58, 3-[4-(1H-indazol-3-yl)-1H-1,2,3-triazol-1-yl]-N-(3-morpholin-4-ylpropyl)benzamide] | 100 to 1000 nM
6 | O=C(NCCCN1CCCCC1)c1cccc(-n2cc(-c3n[nH]c4ccccc34)nn2)c1 [Example 63, 3-[4-(1H-indazol-3-yl)-1H-1,2,3-triazol-1-yl]-N-(3-piperidin-1-ylpropyl)benzamide] | 1000 to 5000 nM
7 | CN(CCNC(=O)c1cccc(-n2cc(-c3n[nH]c4ccccc34)nn2)c1)C1CCCCC1 [Example 64, N-{2-[cyclohexyl(methyl)amino]ethyl}-3-[4-(1H-indazol-3-yl)-1H-1,2,3-triazol-1-yl]benzamide] | 1000 to 5000 nM
8 | COCCNC(=O)c1cccc(-n2cc(-c3n[nH]c4ccccc34)nn2)c1 [Example 65, 3-[4-(1H-indazol-3-yl)-1H-1,2,3-triazol-1-yl]-N-(2-methoxyethyl)benzamide] | 1000 to 5000 nM
9 | CC(C)N1CCN(C(=O)c2cccc(-n3cc(-c4n[nH]c5ccccc45)nn3)c2)CC1 [Example 66, 3-(1-{3-[(4-isopropylpiperazin-1-yl)carbonyl]phenyl}-1H-1,2,3-triazol-4-yl)-1H-indazole] | 1000 to 5000 nM
10 | O=C(c1cccc(-n2cc(-c3n[nH]c4ccccc34)nn2)c1)N1CCCCC1 [Example 67, 3-{1-[3-(piperidin-1-ylcarbonyl)phenyl]-1H-1,2,3-triazol-4-yl}-1H-indazole] | 1000 to 5000 nM
11 | CC(C)NC(=O)c1cccc(-n2cc(-c3n[nH]c4ccccc34)nn2)c1 [Example 68, 3-[4-(1H-indazol-3-yl)-1H-1,2,3-triazol-1-yl]-N-isopropylbenzamide] | 1000 to 5000 nM
12 | O=C(c1cccc(-n2cc(-c3n[nH]c4ccccc34)nn2)c1)N1CCCC(CN2CCCC2)C1 (stereo not shown) [Example 69, 3-[1-(3-{[3-(pyrrolidin-1-ylmethyl)piperidin-1-yl]carbonyl}phenyl)-1H-1,2,3-triazol-4-yl]-1H-indazole] | 1000 to 5000 nM
13 | CN1CCN(C(=O)Cc2ccc(-n3cc(-c4n[nH]c5ccccc45)nn3)cc2)CC1 [Example 70] | 100 to 1000 nM
14 | O=C(CCc1cccc(-n2cc(-c3n[nH]c4ccccc34)nn2)c1)N1CCCC1 [Example 87, 3-{1-[3-(3-oxo-3-pyrrolidin-1-ylpropyl)phenyl]-1H-1,2,3-triazol-4-yl}-1H-indazole] | 1000 to 5000 nM
15 | O=C(c1ccc(-n2cc(-c3n[nH]c4ccccc34)nn2)c(F)c1)N1CCOCC1 [Example 102, 3-{1-[2-fluoro-4-(morpholin-4-ylcarbonyl)phenyl]-1H-1,2,3-triazol-4-yl}-1H-indazole] | 1000 to 5000 nM
16 | O=C(c1ccc(-n2cc(-c3n[nH]c4ccc(Br)cc34)nn2)cc1)N1CCOCC1 [Example 122, 5-bromo-3-{1-[4-(morpholin-4-ylcarbonyl)phenyl]-1H-1,2,3-triazol-4-yl}-1H-indazole] | 100 to 1000 nM
17 | C1=C(c2ccc(-n3cc(-c4n[nH]c5ccccc45)nn3)cc2)CCNC1 [Example 131, hydrochloride] | 100 to 1000 nM
18 | Fc1ccc2c(-c3cn(-c4ccc(C5CCN(CCC(F)(F)F)CC5)cc4)nn3)n[nH]c2c1 [Example 135, 6-fluoro-3-(1-{4-[1-(3,3,3-trifluoropropyl)piperidin-4-yl]phenyl}-1H-1,2,3-triazol-4-yl)-1H-indazole] | 100 to 1000 nM
19 | CC(C)=Cc1ccc2[nH]nc(-c3cn(-c4ccc(C(=O)N5CCC(N(C)C)CC5)cc4)nn3)c2c1 [Example 138, N,N-dimethyl-1-(4-{4-[5-(2-methylprop-1-en-1-yl)-1H-indazol-3-yl]-1H-1,2,3-triazol-1-yl}benzoyl)piperidin-4-amine] | 100 to 1000 nM

The remaining lines, values ahead:

Row | IC50 | SMILES
20 | 1000 to 5000 nM | NCc1ccc(-n2cc(-c3n[nH]c4ccccc34)nn2)cc1 [Example 12, 1-{4-[4-(1H-indazol-3-yl)-1H-1,2,3-triazol-1-yl]phenyl}methanamine]
21 | 1000 to 5000 nM | O=C(NCc1ccc(-n2cc(-c3n[nH]c4ccccc34)nn2)cc1)C1CCCC1 [Example 13, N-{4-[4-(1H-indazol-3-yl)-1H-1,2,3-triazol-1-yl]benzyl}cyclopentanecarboxamide]
22 | 1000 to 5000 nM | O=C(CN1CCOCC1)NCc1ccc(-n2cc(-c3n[nH]c4ccccc34)nn2)cc1 [Example 16, N-{4-[4-(1H-indazol-3-yl)-1H-1,2,3-triazol-1-yl]benzyl}-2-morpholin-4-ylacetamide]
23 | 1000 to 5000 nM | O=C(NCc1ccc(-n2cc(-c3n[nH]c4ccccc34)nn2)cc1)C1CCOCC1 [Example 17, N-{4-[4-(1H-indazol-3-yl)-1H-1,2,3-triazol-1-yl]benzyl}tetrahydro-2H-pyran-4-carboxamide]
24 | 100 to 1000 nM | O=C(Cc1ccc(-n2cc(-c3n[nH]c4ccccc34)nn2)cc1)N1CCOCC1 [Example 18, 3-{1-[4-(2-morpholin-4-yl-2-oxoethyl)phenyl]-1H-1,2,3-triazol-4-yl}-1H-indazole]
25 | 1000 to 5000 nM | CN1CCN(C(=O)CCc2ccc(-n3cc(-c4n[nH]c5ccccc45)nn3)cc2)CC1 [Example 24, 3-(1-{4-[3-(4-methylpiperazin-1-yl)-3-oxopropyl]phenyl}-1H-1,2,3-triazol-4-yl)-1H-indazole]
26 | 100 to 1000 nM | CS(=O)(=O)N1CCN(C(=O)c2ccc(-n3cc(-c4n[nH]c5ccccc45)nn3)cc2)CC1 [Example 41, 3-[1-(4-{[4-(methylsulfonyl)piperazin-1-yl]carbonyl}phenyl)-1H-1,2,3-triazol-4-yl]-1H-indazole]
27 | 100 to 1000 nM | O=C(NCC1CCCO1)c1ccc(-n2cc(-c3n[nH]c4ccccc34)nn2)cc1 (stereo not shown) [Example 45, 4-[4-(1H-indazol-3-yl)-1H-1,2,3-triazol-1-yl]-N-(tetrahydrofuran-2-ylmethyl)benzamide]
28 | 100 to 1000 nM | CCN1CCCC1CNC(=O)c1ccc(-n2cc(-c3n[nH]c4ccccc34)nn2)cc1 (stereo not shown) [Example 47, N-[(1-ethylpyrrolidin-2-yl)methyl]-4-[4-(1H-indazol-3-yl)-1H-1,2,3-triazol-1-yl]benzamide]
29 | 100 to 1000 nM | CC1CCCCN1CCCNC(=O)c1ccc(-n2cc(-c3n[nH]c4ccccc34)nn2)cc1 (stereo not shown) [Example 56]
30 | 100 to 1000 nM | N#CCCN1CCN(C(=O)c2ccc(-n3cc(-c4n[nH]c5ccccc45)nn3)cc2)CC1 [Example 57, 3-(4-(4-[4-(1H-indazol-3-yl)-1H-1,2,3-triazol-1-yl]benzoyl}piperazin-1-yl)propanenitrile]
31 | 100 to 1000 nM | CCC1CCCCN1CCCNC(=O)c1ccc(-n2cc(-c3n[nH]c4ccccc34)nn2)cc1 (stereo not shown) [Example 59, N-[3-(2-ethylpiperidin-1-yl)propyl]-4-[4-(1H-indazol-3-yl)-1H-1,2,3-triazol-1-yl]benzamide]
32 | 1000 to 5000 nM | O=C(NCCCN1CCCC1=O)c1ccc(-n2cc(-c3n[nH]c4ccccc34)nn2)cc1 [Example 61, 4-[4-(1H-indazol-3-yl)-1H-1,2,3-triazol-1-yl]-N-[3-(2-oxopyrrolidin-1-yl)propyl]benzamide]
33 | 1000 to 5000 nM | O=C(NCc1cccc(F)c1)c1ccc(-n2cc(-c3n[nH]c4ccccc34)nn2)cc1 [Example 62, N-(3-fluorobenzyl)-4-[4-(1H-indazol-3-yl)-1H-1,2,3-triazol-1-yl]benzamide]
34 | 100 to 1000 nM | CN1CCCC1CCNC(=O)c1ccc(-n2cc(-c3n[nH]c4ccccc34)nn2)cc1 (stereo not shown) [Example 90, 4-[4-(1H-indazol-3-yl)-1H-1,2,3-triazol-1-yl]-N-[2-(1-methylpyrrolidin-2-yl)ethyl]benzamide]
35 | 100 to 1000 nM | O=C(c1ccc(-n2cc(-c3n[nH]c4ccccc34)nn2)cc1)N(CCO)C1CCCCC1 [Example 107, N-cyclohexyl-N-(2-hydroxyethyl)-4-[4-(1H-indazol-3-yl)-1H-1,2,3-triazol-1-yl]benzamide]
36 | 1000 to 5000 nM | CN1CCC(NC(=O)c2ccc(-n3cc(-c4n[nH]c5ccccc45)nn3)cc2)CC1 [Example 116, 4-[4-(1H-indazol-3-yl)-1H-1,2,3-triazol-1-yl]-N-(1-methylpiperidin-4-yl)benzamide]
37 | 100 to 1000 nM | CCC(O)CNC(=O)c1ccc(-n2cc(-c3n[nH]c4ccccc34)nn2)cc1 (stereo not shown) [Example 119, N-(2-hydroxybutyl)-4-[4-(1H-indazol-3-yl)-1H-1,2,3-triazol-1-yl]benzamide]
38 | 100 to 1000 nM | FCCN1CCC(c2ccc(-n3cc(-c4n[nH]c5ccccc45)nn3)cc2)CC1 [Example 133, 3-(1-{4-[1-(2-fluoroethyl)piperidin-4-yl]phenyl}-1H-1,2,3-triazol-4-yl)-1H-indazole]
39 | 100 to 1000 nM | CC(=O)N1CCC(c2ccc(-n3cc(-c4n[nH]c5ccccc45)nn3)cc2)CC1 [Example 134, 3-{1-[4-(1-acetylpiperidin-4-yl)phenyl]-1H-1,2,3-triazol-4-yl}-1H-indazole]
40 | 100 to 1000 nM | OC1CNCCC1c1ccc(-n2cc(-c3n[nH]c4ccccc34)nn2)cc1 (stereo not shown) [Example 137, 4-{4-[4-(1H-indazol-3-yl)-1H-1,2,3-triazol-1-yl]phenyl}piperidin-3-ol hydrochloride]

From US9073892B2, “Indazolyl triazol derivatives” (Merck Serono S.A., priority 2010, dated 2015)
